The source of these data is US20250154288A1, “CYTOTOXICITY TARGETING CHIMERAS FOR C-C CHEMOKINE RECEPTOR 2-EXPRESSING CELLS” (GLAXOSMITHKLINE INTELLECTUAL PROPERTY DEVELOPMENT LIMITED, priority 2022, published 2025).

The target of data set [1] is T1, CHOK1 cells engineered to overexpress human CCR2 (Homo sapiens, UniProt P41597).
T1 construct: expressed in transfected cells; host or cells: CHOK1
Kind of data set: Antibody Dependent Cellular Cytotoxicity (ADCC) Reporter Assay. The class given is cell-based. To be noted: with anti-cotinine antibody (human IgG1 Fc, S239D/I332E); Jurkat FcγRIIIa NFAT-luciferase reporter cells; average if several runs; read-out: ADCC Reporter Assay pEC50 (converted). As to the method: An antibody dependent cellular cytoxocity reporter assay was conducted using the following four assay components: (i) ARM compound of Formula (I) targeting CCR2 (concentrations ranging from 1 pM to 10 μM) (ii) anti-cotinine antibody having a heavy chain sequence of SEQ ID NO: 11 and a light chain sequence of SEQ ID NO: 12 (rabbit variable region with human IgG1 Fc domain containing a DE mutation (S239D/I332E)) (concentrations ranging from 0.01 μg/mL to 200 μg/mL); (iii) target cells: CHOK1 cells engineered to overexpress either human CCR2 (typically 1000-20,000 cells per well) and (iv) reporter cells: Jurkat cells engineered to express FcγRIIIa with the reporter gene luciferase under the control of the NFAT promoter (typically 3000-75,000 cells per well). Reagents were combined in a final volume of 20 μL in a 384-well tissue culture treated plate. All four assay components were incubated together for about 12-18 hours. Thereafter, BioGlo Detection reagent (Promega) was added to the wells to lyse the cells and provide a substrate for the luciferase reporter protein. Luminescence signal was measured on a microplate reader and signal:background was calculated by dividing the signal of a test well by the signal obtained when no heterobivalent compound of Formula (I) was added. EC50 calculations were done using Graphpad Prism Software, specifically a nonlinear regression curve fit (Y=Bottom+(Top−Bottom)/(1+10 ^((Log EC50−X)*HillSlope))).
ARMs compounds of Formula (I) of the invention were tested for ADCC activity in the above assay in or more experimental runs and the results are shown in Table 3 below. Potency of the compounds of Formula (I) of the invention is reported as a pEC50 value. The pEC50 value is the negative log of the EC50 value, wherein the EC50 value is the half maximal effective concentration measured in molar (M). For compounds tested in more than one experimental run, the pEC50 value is reported as an average.

Data set [2] deals with CCR2 expressing cells (CD11b+Ly6c+ Hi) in peripheral blood. In words: In Vivo Depletion Assay (flow cytometry of peripheral blood). On the set-up: species or system Human CCR2 (hCCR2) knock-in mice. To be noted: hCCR2 knock-in mice; IV 0.1 mpk compound + 10 mpk anti-cotinine antibody (mouse IgG2a Fc); peripheral blood at 48 hr. How it is done:
(§1) Human CCR2 (hCCR2) knock-in mice (057 background) were dosed intravenously with a PBS solution containing a compound of Formula (I) to measure depletion of CCR2 expressing cells in peripheral blood. Peripheral blood from IV dosed mice was also analyzed to determine PK properties of the ARM compounds of Formula (I).
Stock solution preparation: Stock solutions of compounds of Formula (I) were prepared at 20 mg/mL and 100 mg/mL in DMSO for PK/PD and dose tolerability studies respectively. Stock solutions were stored at −20° C. until further usage.
Formulations preparation: On the day of experiment, the stock solution of the compound of Formula (I) was removed from storage at −20° C. and thawed at room temperature. Anti-cotinine antibody having a heavy chain sequence of SEQ ID NO: 13 and a light chain sequence of SEQ ID NO: 14 (rabbit variable region sequence with mouse IgG2a Fc domain), if required was removed from storage at −80° C. and thawed at room temperature. Antibody vials were immediately transferred into wet ice after thawing. Compounds of Formula (I) were further diluted in DMSO as per experimental requirements.
Formulation composition: The formulation composition was Saline: DMSO: PBS. Saline was added based on the quantity required and then stock solution of the compound of Formula (I) prepared in DMSO, followed by addition of antibody in PBS. Formulations were incubated at room temperature for 30 minutes before administration to the mouse. DMSO was used at 1 to 2% (v/v) in the final formulation.
(§2) Administration to Animal: Solution formulation of antibody and compound of Formula (I) was injected (bolus injection) to the restrained mouse in the right/left lateral tail vein. Animals were dosed with 0.1 milligram per kilogram (mpk) of the compound of Formula (I) and 10 mpk of the anti-cotinine antibody.
(§3) Terminal bleeding at end of experiment (48 hr): Approximately 250 μL of blood in K2EDTA tube and approximately 250 μL of blood in SST (serum separation tube) was collected from each mouse through retro-orbital bleeding under deep isoflurane anesthesia. After bleeding, each mouse was sacrificed by cervical dislocation. The blood distribution at termination was determined as follows: • For PK: 50 μL of K2EDTA blood was transferred to another tube for PK • Flow cytometry: Remaining blood (˜200 μL) was used for flow cytometry analysis. • For serum collection: serum separator tubes (BD) were centrifuged at 4° C., 5000 rpm for 15 minutes. Approximately 100 μL serum was separated and stored at −80° C. for further usage. • Blood drug concentration: Samples collected at the various timepoints (0.25 hr, 2 hr, 24 and 48 hr) were analyzed to determine blood drug concentration.
CCR2 depletion in peripheral blood was determined by flow cytometry. Briefly, peripheral blood was collected from all animals at the end of study termination and processed. Blood samples were lysed using 1×RBC Lysis buffer and the resulting cell pellet was washed twice in FACS buffer (HBSS containing 5% FBS). Cells were subjected to Fc blocking using mouse Fc block from Biolegend (Trustain, anti-mouse CD16/32, Cat: 101319) to block non-specific binding followed by surface staining for immune markers (CD45, CD3, CD11b, Ly6C, human CCR2). Surface staining was done for 30 minutes in ice and cells were washed twice to remove unbound antibodies. Cells were stained with 7AAD to determine viability and acquired on BD FACSVerse flow cytometer. Appropriate FMO controls and single-color controls were included in the experiment for gating and compensation respectively.
Percent depletion of CD11b+Ly6c+ Hi cells and CCR2 expression for the different treatment groups was determined. The results are shown below in Table 4 and are reported as percent (%) depletion of CCR2 expressing cells.
A general note: A flow cytometer gives signals particle by particle.

A short description of data set [3]: Blood drug concentration analysis (LC-MS/MS) in In Vivo Depletion Assay. To be noted: human CCR2 (hCCR2) knock-in, 057 background, mouse, whole blood, hCCR2 knock-in mice, IV 0.1 mpk compound + 10 mpk anti-cotinine antibody, 48 hours post-dose, read-out: Exposure of Compound of Formula (I) 48 hours post-dose. How it is done: as §1, §2
Collection of Blood for PK: Blood was collected at time points 0.25 hour, 2 hours, and […] following administration (50 μL/time point) through retro-orbital bleeding under mild isoflurane anesthesia.
as §3
Drug concentration in blood samples was determined by an LC-MS/MS-based bioanalytical method developed at Syngene. Samples were analyzed on Q-Trap, API-5500 LC-MS/MS system coupled with Exion UHPLC system from SCIEX, USA operated in multiple reaction monitoring mode employing electrospray ionization technique in positive polarity. Analyte and internal standard peaks were resolved on Synergi Polar, 75×2.0 mm, 4μ column using mobile phase 10 mM Ammonium acetate in Milli-Q water as phase A and 0.1% Formic acid in acetonitrile as Phase B. Gradient elution was performed with initial composition 95% Phase A at 0.0 min, holding it for 0.2 minutes, ramping to 5% by 1.0 minute, keeping the same for next 0.5 minutes and coming back to 95% by 1.6 minutes. The total run time was 2 minutes.
Working dilutions for calibration curve and quality control standards were prepared by serially diluting 20 mg/mL stock solution with DMSO. Spiked concentrations for calibration curve in the whole blood ranged from 1 ng/mL to 1000 ng/mL. The working solution of internal standard (Verapamil, 25 ng/mL) was prepared in acetonitrile. 10 μL of the study sample and calibration curve, quality control, and blank whole blood samples were aliquoted in 96 deep well plates for processing. 10 μL of Milli-Q water was added to all the samples and briefly vortexed to initiate complete hemolysis. 10 μL of 20 mM dithiothreitol (OTT) was added to all the samples and incubated for 30 minutes at 37° C. The addition of DTT enhanced the recovery of ARM compounds of Formula (I) from the biological matrix. 300 μL of working internal standard solution was added to all samples except total blank and wash samples, where 300 μL of acetonitrile was added. All the samples were vortex mixed for 5 minutes, followed by centrifugation at 4000 rpm for 10 minutes at 4° C. Supernatants were transferred to the loading plate and injected 3 μL to LC-MS/MS system for analysis. The results are shown below in Table 4 and are reported as compound exposure 48 hours post-dose

Take `CO[C@@H]1COCC[C@@H]1N[C@@H]1CC[C@](CCCNC(=O)[C@H]2CC[C@H](NC(=O)CCCO[C@H]3CC[C@@H](OCCNC(=O)[C@H]4CC(=O)N(C)[C@@H]4c4cccnc4)CC3)CC2)(C(=O)N2CCc3ncc(C(F)(F)F)cc3C2)C1` [Example 5, (2S,3S)-N-(2-(((1S,4R)-4-(4-(((1S,4R)-4-((3-((1S,3R)-3-(((3S,4S)-3-Methoxytetrahydro-2H-pyran-4-yl)amino)-1-(3-(trifluoromethyl)-5,6,7,8-tetrahydro-1,6-naphthyridine-6-carbonyl)cyclopentyl)propyl)carbamoyl)cyclohexyl)amino)-4-oxobutoxy)cyclohexyl)oxy)ethyl)-1-methyl-5-oxo-2-(pyridin-3-yl)pyrrolidine-3-carboxamide]: the EC50 in data set [1] is 0.158 nM. For the same compound, in data set [2], the “% Depletion of CCR2 expressing cells” value is 98.41%. Also, in data set [3], the concentration at 48 h turned out to be 95.4 ng/mL.
The corresponding values for `CO[C@@H]1COCC[C@@H]1N[C@@H]1CC[C@@](C(=O)N2CCc3nc(CCCCNC(=O)[C@H]4CC[C@H](NC(=O)CCCO[C@H]5CC[C@H](OCCNC(=O)[C@H]6CC(=O)N(C)[C@@H]6c6cccnc6)CC5)CC4)c(C(F)(F)F)cc3C2)(C(C)C)C1` [Example 12, (2S,3S)-N-(2-(((1R,4S)-4-(4-(((1r,4R)-4-((4-(6-((1S,3R)-1-Isopropyl-3-(((3S,4S)-3-methoxytetrahydro-2H-pyran-4-yl)amino)cyclopentane-1-carbonyl)-3(trifluoromethyl)-5,6,7,8-tetrahydro-1,6-naphthyridin-2-yl)butyl)carbamoyl)cyclohexyl)amino)-4oxobutoxy)cyclohexyl)oxy)ethyl)-1-methyl-5-oxo-2-(pyridin-3-yl)pyrrolidine-3 carboxamide] are 0.631 nM, 95.4% and 33.3 ng/mL.
